According to the supplement of paper PMC10307832:

Legend:
Assay in all cases: relative viability (nuclei count vs DMSO), 5 days (fraction); higher = more cells survive
[1] = compound: CC1=CC(=CC=C1)NC2=NC(=CS2)C3=CC=NC=C3 + Cc1nc(Nc2ncc(C(=O)Nc3c(C)cccc3Cl)s2)cc(N2CCN(CCO)CC2)n1 [Dasatinib] (partner 0.075 µM)
In short: (§1)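 Relative viability equals treated-well nuclei counts divided by vehicle-well nuclei counts. Counts came from 4× images of lung cancer cell lines grown in 1536-well plates for 5 days after pin-tool dosing on the day after seeding. Dosing used one drug alone or a fixed anchor-drug dose plus five library-drug doses (not always all listed) in √10 steps, and values are medians of duplicate plates.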

[2] = compound: CC1=CC(=CC=C1)NC2=NC(=CS2)C3=CC=NC=C3 + Cc1nc(NC(=O)N2CCC[C@H]2C(N)=O)sc1-c1ccnc(C(C)(C)C(F)(F)F)c1 [Alpelisib] (partner 2 µM)
In short: as §1

[3] = compound: Cc1ccc(NC(=O)c2ccc(CN3CCN(C)CC3)cc2)cc1Nc1nc(-c2cccnc2)cs1 [Masitinib] + N=C(N)NC(=N)NCCc1ccccc1 [Phenformin] (partner 250 µM)
In short: as §1

[4] = compound: Cc1ccc(NC(=O)c2ccc(CN3CCN(C)CC3)cc2)cc1Nc1nc(-c2cccnc2)cs1 [Masitinib] + COc1cc2c(Oc3ccc(NC(=O)C4(C(=O)Nc5ccc(F)cc5)CC4)cc3F)ccnc2cc1OCCCN1CCOCC1 [Foretinib] (partner 0.25 µM)
In short: as §1

Cell Line | relative viability ([1]; first compound 0.08 µM) | relative viability ([1]; first compound 0.253 µM) | relative viability ([1]; first compound 0.8 µM) | relative viability ([1]; first compound 2.53 µM) | relative viability ([1]; first compound 8 µM) | relative viability ([2]; first compound 0.08 µM) | relative viability ([2]; first compound 0.253 µM) | relative viability ([2]; first compound 0.8 µM) | relative viability ([2]; first compound 2.53 µM) | relative viability ([2]; first compound 8 µM) | relative viability ([3]; first compound 0.01 µM) | relative viability ([3]; first compound 0.03162 µM) | relative viability ([3]; first compound 0.1 µM) | relative viability ([3]; first compound 0.3162 µM) | relative viability ([3]; first compound 1 µM) | relative viability ([4]; first compound 0.01 µM) | relative viability ([4]; first compound 0.03162 µM) | relative viability ([4]; first compound 0.1 µM) | relative viability ([4]; first compound 1 µM) | relative viability ([4]; first compound 0.3162 µM)
201T | 0.59 | 0.515 | 0.497 | 0.508 | 0.382 | 1 | 1.05 | 1.04 | 0.96 | 0.853 | 0.362 | 0.409 | 0.373 | 0.471 | 0.44 | 0.89 | 1.21 | 1.02 | 1.11 | –
A549 | – | – | – | – | – | 0.778 | 0.693 | 0.913 | 0.758 | 0.673 | 0.148 | 0.186 | 0.153 | 0.198 | 0.12 | 0.881 | 0.826 | 1 | 1.23 | 0.898
A-427 | 0.61 | 0.658 | 0.681 | 0.681 | 0.518 | 1.03 | 1.06 | 1.1 | – | 0.844 | – | 0.292 | – | 0.309 | 0.235 | – | 1.13 | – | 1 | 1.01
ABC-1 | 0.659 | 0.473 | 0.552 | 0.445 | 0.404 | 0.928 | 0.891 | 0.873 | 0.907 | 0.967 | 0.204 | 0.24 | 0.228 | 0.209 | 0.234 | 0.93 | 1.07 | 1.21 | 1 | 1.05
BEN | 0.304 | 0.273 | 0.364 | 0.222 | 0.327 | 1.11 | 0.973 | 1.07 | 0.856 | 0.91 | 0.288 | – | 0.268 | 0.272 | 0.253 | 0.702 | – | 0.745 | 0.461 | 0.705
CAL-12T | 0.423 | 0.321 | 0.332 | 0.299 | 0.245 | 1.22 | 1.13 | 1.33 | 1.07 | 1.22 | 0.525 | 0.637 | 0.594 | 0.553 | 0.509 | 1.05 | 1.16 | 1.15 | 0.933 | 1.07
COR-L23 | 0.479 | 0.511 | 0.389 | 0.338 | 0.402 | 0.607 | 0.609 | 0.508 | 0.611 | 0.71 | 0.415 | 0.434 | 0.507 | 0.428 | 0.417 | 0.935 | 1.05 | 1.1 | 0.92 | 1.02
COR-L 105 | 0.284 | 0.289 | 0.349 | 0.279 | 0.306 | 0.956 | 0.794 | 0.869 | 0.773 | 0.715 | 0.505 | 0.542 | 0.604 | 0.515 | 0.425 | 1.01 | 0.906 | 1.06 | 0.726 | 0.901
Calu-6 | – | – | – | – | – | 0.886 | 0.744 | 0.906 | 0.957 | 0.919 | – | – | – | – | – | 0.814 | 0.822 | 0.931 | 0.862 | 0.825
ChaGo-K-1 | 0.547 | 0.675 | 0.605 | 0.49 | 0.54 | – | – | – | – | – | 0.509 | 0.455 | 0.511 | 0.467 | 0.411 | 0.961 | 0.863 | 0.924 | 0.907 | 0.967
EBC-1 | – | – | – | – | – | 0.644 | 0.744 | 0.773 | 0.809 | 0.712 | – | – | – | – | – | 0.112 | 0.096 | 0.108 | 0.126 | 0.0908
EKVX | 0.208 | 0.518 | 0.552 | 0.446 | 0.306 | 0.764 | 0.812 | 0.824 | 0.643 | 0.656 | – | 0.213 | 0.235 | 0.214 | 0.199 | – | 0.663 | 0.53 | 0.68 | 0.458
EMC-BAC-2 | 0.279 | 0.312 | 0.293 | 0.306 | 0.332 | 0.66 | 0.747 | 0.702 | 0.779 | 0.719 | 0.485 | 0.494 | 0.524 | 0.53 | 0.457 | 0.873 | 0.955 | 1.02 | 1.02 | 0.956
EPLC-272H | 0.396 | 0.338 | 0.273 | 0.288 | 0.333 | 0.894 | – | 0.927 | – | 0.869 | 0.317 | 0.212 | 0.285 | 0.305 | 0.257 | 0.63 | 0.64 | 0.669 | 0.645 | 0.875
H3255 | 0.397 | 0.347 | 0.489 | 0.341 | 0.528 | 0.582 | 0.713 | 0.72 | 0.654 | 0.594 | 0.388 | 0.277 | 0.374 | 0.315 | 0.407 | 0.745 | 0.922 | 0.648 | 0.748 | 0.934
HARA | 0.194 | 0.269 | 0.399 | 0.281 | 0.278 | 0.621 | 0.513 | 0.596 | 0.724 | 0.542 | – | 0.417 | 0.399 | 0.398 | 0.424 | – | 0.795 | 0.913 | 0.819 | 0.437
HCC-15 | 0.467 | 0.469 | 0.589 | 0.499 | 0.53 | 0.792 | 0.699 | 0.845 | 0.841 | 0.879 | 0.448 | 0.453 | 0.497 | 0.459 | 0.405 | 0.989 | 0.949 | 1.02 | 0.983 | 1.05
HCC-44 | – | – | – | – | – | 0.601 | 0.497 | 0.56 | 0.644 | 0.608 | 0.236 | 0.188 | 0.213 | 0.323 | 0.185 | – | – | – | – | –
HCC-78 | – | 0.376 | 0.398 | 0.379 | 0.523 | 0.26 | 0.284 | 0.365 | 0.317 | 0.366 | 0.724 | 0.638 | 0.752 | 0.663 | 0.718 | 0.554 | 0.551 | 0.548 | 0.451 | 0.521
